This assay addresses βTrCP (Homo sapiens, UniProt Q9Y297). Briefly: Fluorescence polarisation (FP) binding assay with fluorescein-tagged IκB peptide. Conditions: Tables 1, 3, 7, 8; 10 nM fluorescein-tagged IκB peptide; read-out: FP Assay IC50/μM.

Starred links: 1 amine or outer side, 2 acyl side, 3 side chain; linkers in the order of their positions; H or OH if unused. Non-standard residues stand in square brackets, D forms with d. Residues, ends and D or L forms follow the SMILES beside them. *: point of attachment. Phe(4-NO2) = N[C@@H](Cc1ccc([N+](=O)[O-])cc1)C(=O)O; Benzoyl(2-COOH) = O=C(O)c1ccccc1C(=O)*; Phe(3-F) = N[C@@H](Cc1cccc(F)c1)C(=O)O; Phe(4-F) = N[C@@H](Cc1ccc(F)cc1)C(=O)O; 1Nal = N[C@@H](Cc1cccc2ccccc12)C(=O)O; Phe(2-F) = N[C@@H](Cc1ccccc1F)C(=O)O; 3Pal = N[C@@H](Cc1cccnc1)C(=O)O; pS = N[C@@H](COP(=O)(O)O)C(=O)O; Fumaroyl = O=C(O)/C=C/C(=O)*; Suc = O=C(CCC(=O)[*:2])[*:1]; X6 = O=C(O)C1CCC(C(=O)*)CC1; MeOSuc = COC(=O)CCC(=O)*

Chain of βTrCP (Q9Y297 whole entry): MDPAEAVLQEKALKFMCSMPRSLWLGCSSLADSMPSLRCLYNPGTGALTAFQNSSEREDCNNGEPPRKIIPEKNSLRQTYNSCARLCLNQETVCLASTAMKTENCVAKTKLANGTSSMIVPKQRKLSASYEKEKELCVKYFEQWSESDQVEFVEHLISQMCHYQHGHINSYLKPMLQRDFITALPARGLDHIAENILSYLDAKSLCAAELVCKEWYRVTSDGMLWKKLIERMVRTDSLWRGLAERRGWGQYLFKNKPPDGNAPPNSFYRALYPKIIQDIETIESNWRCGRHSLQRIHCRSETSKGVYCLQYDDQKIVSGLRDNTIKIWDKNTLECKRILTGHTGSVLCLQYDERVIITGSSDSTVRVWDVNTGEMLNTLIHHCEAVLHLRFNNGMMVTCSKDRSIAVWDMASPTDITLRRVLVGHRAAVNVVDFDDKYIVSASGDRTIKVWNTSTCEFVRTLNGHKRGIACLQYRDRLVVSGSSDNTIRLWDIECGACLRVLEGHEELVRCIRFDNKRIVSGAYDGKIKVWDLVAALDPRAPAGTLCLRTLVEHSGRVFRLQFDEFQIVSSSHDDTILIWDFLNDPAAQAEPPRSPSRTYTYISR
Chain of βTrCP (P63208 whole entry partner): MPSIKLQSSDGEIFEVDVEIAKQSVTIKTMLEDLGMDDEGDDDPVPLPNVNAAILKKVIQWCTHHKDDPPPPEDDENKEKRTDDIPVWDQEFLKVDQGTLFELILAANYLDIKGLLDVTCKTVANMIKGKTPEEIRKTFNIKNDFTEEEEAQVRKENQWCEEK

On to `NC(=O)[C@H](CCC(=O)O)NC(=O)[C@H](Cc1ccccc1)NC(=O)[C@H](Cc1ccccc1)NC(=O)CNC(=O)[C@H](CCC(=O)O)NC(=O)C1CCC(C(=O)O)CC1` (stereo partly shown) [1,4-Chda-EGFFE-NH2] (X6-EGFFE-NH2), for which the IC50 was more than 100 µM. For `COC(=O)CCC(=O)N[C@@H](CCC(=O)O)C(=O)NCC(=O)N[C@@H](Cc1cccc(F)c1)C(=O)N[C@@H](Cc1cccc2ccccc12)C(=O)N[C@@H](CCC(=O)O)C(N)=O` [(MeO)Suc-EG-F(3F)-1Nal-E-NH2] (MeOSuc-EG[Phe(3-F)][1Nal]E-NH2) the value was 1.6 µM; for `CC[C@H](C)[C@H](NC(=O)CNC(=O)[C@H](COP(=O)(O)O)NC(=O)[C@H](CC(=O)O)NC(=O)[C@H](C)N)C(=O)N[C@@H](Cc1c[nH]cn1)C(=O)N[C@@H](CO)C(N)=O` [AD-pS-GIHS-NH2] (H-AD[pS]GIHS-NH2), more than 100 µM. For `C[C@H](N)C(=O)NCC(=O)N[C@@H](Cc1cccc(F)c1)C(=O)N[C@@H](Cc1ccc([N+](=O)[O-])cc1)C(=O)N[C@@H](CCC(=O)O)C(N)=O` [AG-F(3F)-F(4NO2)-E-NH2] (H-AG[Phe(3-F)][Phe(4-NO2)]E-NH2) the value was more than 100 µM; for `CC[C@H](C)[C@H](NC(=O)CNC(=O)[C@H](COP(=O)(O)O)NC(=O)[C@@H](N)CC(=O)O)C(=O)N[C@@H](Cc1ccccc1)C(=O)N[C@@H](Cc1c[nH]cn1)C(N)=O` [D-pS-GIFH-NH2] (H-D[pS]GIFH-NH2), more than 100 µM. Then `CC[C@H](C)[C@H](NC(=O)CNC(=O)[C@H](COP(=O)(O)O)NC(=O)[C@@H](N)CC(=O)O)C(=O)N[C@@H](Cc1c[nH]cn1)C(=O)N[C@@H](CO)C(N)=O` [D-pS-GIHS-NH2] (H-D[pS]GIHS-NH2), with more than 100 µM.

As for `NC(=O)C[C@H](NC(=O)CNC(=O)[C@H](COP(=O)(O)O)NC(=O)[C@@H](N)CC(=O)O)C(=O)N[C@@H](Cc1ccccc1)C(=O)N[C@@H](CCC(=O)O)C(N)=O` [D-pS-GNFE-NH2] (H-D[pS]GNFE-NH2), the IC50 was more than 100 µM. `CC[C@H](C)[C@H](NC(=O)CNC(=O)[C@H](COP(=O)(O)O)NC(=O)[C@@H](N)CCC(=O)O)C(=O)N[C@@H](Cc1ccccc1)C(=O)N[C@@H](CCC(=O)O)C(N)=O` [E-pS-GIFE-NH2] (H-E[pS]GIFE-NH2): the IC50 was determined as 34.5 µM. Regarding `C[C@H](NC(=O)[C@@H](N)CCC(=O)O)C(=O)N[C@@H](Cc1cccc(F)c1)C(=O)N[C@@H](Cc1ccc([N+](=O)[O-])cc1)C(=O)N[C@@H](CCC(=O)O)C(N)=O` [EA-F(3F)-F(4NO2)-E-NH2], the IC50 is more than 100 µM. Then `NC(=O)[C@H](CCC(=O)O)NC(=O)[C@H](Cc1cccc2ccccc12)NC(=O)[C@H](Cc1cccc(F)c1)NC(=O)CNC(=O)[C@@H](N)CCC(=O)O` [EG-F(3F)-1Nal-E-NH2] (H-EG[Phe(3-F)][1Nal]E-NH2), with more than 100 µM; and `NC(=O)[C@H](CCC(=O)O)NC(=O)[C@H](Cc1cccc2ccccc12)NC(=O)[C@H](Cc1ccc([N+](=O)[O-])cc1)NC(=O)CNC(=O)[C@@H](N)CCC(=O)O` [EG-F(4NO2)-1Nal-E-NH2] (H-EG[Phe(4-NO2)][1Nal]E-NH2), with more than 100 µM. For `NC(=O)[C@H](CCC(=O)O)NC(=O)[C@H](Cc1cccc2ccccc12)NC(=O)[C@H](Cc1ccc(O)cc1)NC(=O)CNC(=O)[C@@H](N)CCC(=O)O` [EGY-1Nal-E-NH2] (H-EGY[1Nal]E-NH2) the value was more than 100 µM; for `NC(=O)[C@H](CCC(=O)O)NC(=O)[C@H](Cc1ccc([N+](=O)[O-])cc1)NC(=O)[C@H](Cc1ccc(O)cc1)NC(=O)CNC(=O)[C@@H](N)CCC(=O)O` [EGY-F(4NO2)-E-NH2] (H-EGY[Phe(4-NO2)]E-NH2), more than 100 µM.

As for `NC(=O)[C@H](CCC(=O)O)NC(=O)[C@H](Cc1ccc([N+](=O)[O-])cc1)NC(=O)[C@H](Cc1cccc(F)c1)NC(=O)CNC(=O)[C@H](CCC(=O)O)NC(=O)/C=C/C(=O)O` [Fum-EG-F(3F)-F(4NO2)-E-NH2] (Fumaroyl-EG[Phe(3-F)][Phe(4-NO2)]E-NH2), the IC50 came to 60.4 µM. As to `CC[C@H](C)[C@H](NC(=O)CNC(=O)[C@H](COP(=O)(O)O)NC(=O)[C@H](CC(=O)O)NC(=O)CN)C(=O)N[C@@H](Cc1c[nH]cn1)C(=O)N[C@@H](CO)C(N)=O` [GD-pS-GIHS-NH2] (H-GD[pS]GIHS-NH2), the IC50 was more than 100 µM.

Consider `CC[C@H](C)[C@H](NC(=O)[C@H](Cc1c[nH]cn1)NC(=O)CNC(=O)[C@H](CO)NC(=O)[C@H](COP(=O)(O)O)NC(=O)[C@H](CC(=O)O)NC(=O)[C@@H](N)CC(C)C)C(=O)N[C@@H](CO)C(N)=O` [LD-pS-SGHIS-NH2] (H-LD[pS]SGHIS-NH2), for which the IC50 is more than 100 µM. Consider `C[C@H](NC(=O)c1ccccc1C(=O)O)C(=O)NCC(=O)N[C@@H](Cc1ccccc1)C(=O)N[C@@H](Cc1ccccc1)C(=O)N[C@@H](CCC(=O)O)C(N)=O` [Phth-AGFFE-NH2] ({Benzoyl(2-COOH)}-AGFFE-NH2), for which the IC50 was more than 100 µM.

Turning to `CC[C@H](C)[C@H](NC(=O)CNC(=O)[C@H](C)NC(=O)c1ccccc1C(=O)O)C(=O)N[C@@H](Cc1ccccc1)C(=O)N[C@@H](CCC(=O)O)C(N)=O` [Phth-AGIFE-NH2] ({Benzoyl(2-COOH)}-AGIFE-NH2), the IC50 is more than 100 µM. In the case of `CC[C@H](C)[C@H](NC(=O)CNC(=O)[C@H](CCC(=O)O)NC(=O)c1ccccc1C(=O)O)C(=O)N[C@@H](Cc1ccccc1)C(=O)N[C@@H](CCC(=O)O)C(N)=O` [Phth-EGIFE-NH2] ({Benzoyl(2-COOH)}-EGIFE-NH2), the IC50 was more than 100 µM. For `NC(=O)CC[C@H](N)C(=O)NCC(=O)N[C@@H](Cc1cccc(F)c1)C(=O)N[C@@H](Cc1ccc([N+](=O)[O-])cc1)C(=O)N[C@@H](CCC(=O)O)C(N)=O` [QG-F(3F)-F(4NO2)-E-NH2] the value was more than 100 µM. For `C[C@H](NC(=O)CCC(=O)O)C(=O)NCC(=O)N[C@@H](Cc1cccc(F)c1)C(=O)N[C@@H](Cc1ccc([N+](=O)[O-])cc1)C(=O)N[C@@H](CCC(=O)O)C(N)=O` [Suc-AG-F(3F)-F(4NO2)-E-NH2] (Suc-AG[Phe(3-F)][Phe(4-NO2)]E-NH2) the value was 8.01 µM. For `C[C@H](NC(=O)CCC(=O)O)C(=O)NCC(=O)N[C@@H](Cc1ccccc1)C(=O)N[C@@H](Cc1ccccc1)C(=O)N[C@@H](CCC(=O)O)C(N)=O` [Suc-AGFFE-NH2] (Suc-AGFFE-NH2) the value was more than 100 µM. Consider `CC[C@H](C)[C@H](NC(=O)CNC(=O)[C@H](C)NC(=O)CCC(=O)O)C(=O)N[C@@H](Cc1ccccc1)C(=O)N[C@@H](CCC(=O)O)C(N)=O` [Suc-AGIFE-NH2] (Suc-AGIFE-NH2), for which the IC50 is more than 100 µM.

Regarding `C[C@H](NC(=O)CCC(=O)O)C(=O)NCC(=O)N[C@@H](Cc1ccc(O)cc1)C(=O)N[C@@H](Cc1ccccc1)C(=O)N[C@@H](CCC(=O)O)C(N)=O` [Suc-AGYFE-NH2], the IC50 came out at 22.2 µM. On to `C[C@H](NC(=O)[C@H](CCC(=O)O)NC(=O)CCC(=O)O)C(=O)N[C@@H](Cc1cccc(F)c1)C(=O)N[C@@H](Cc1ccc([N+](=O)[O-])cc1)C(=O)N[C@@H](CCC(=O)O)C(N)=O` [Suc-EA-F(3F)-F(4NO2)-E-NH2], for which the IC50 turned out to be 27.5 µM. For `C[C@H](NC(=O)[C@H](CCC(=O)O)NC(=O)CCC(=O)O)C(=O)N[C@@H](Cc1ccccc1)C(=O)N[C@@H](Cc1ccccc1)C(=O)N[C@@H](CCC(=O)O)C(N)=O` [Suc-EAFFE-NH2] the value was 59.8 µM; for `C[C@H](NC(=O)[C@H](CCC(=O)O)NC(=O)CCC(=O)O)C(=O)N[C@@H](Cc1ccc(O)cc1)C(=O)N[C@@H](Cc1ccccc1)C(=O)N[C@@H](CCC(=O)O)C(N)=O` [Suc-EAYFE-NH2], 82.1 µM; for `NC(=O)[C@H](CCC(=O)O)NC(=O)[C@H](Cc1cccc2ccccc12)NC(=O)[C@H](Cc1cccnc1)NC(=O)CNC(=O)[C@H](CCC(=O)O)NC(=O)CCC(=O)O` [Suc-EG-3Pal-1Nal-E-NH2] (Suc-EG[3Pal][1Nal]E-NH2), 3.63 µM. Then `NC(=O)[C@H](Cc1cccc(F)c1)NC(=O)[C@H](Cc1ccccc1F)NC(=O)CNC(=O)[C@H](CCC(=O)O)NC(=O)CCC(=O)O` [Suc-EG-F(2F)-F(3F)-NH2] (Suc-EG[Phe(2-F)][Phe(3-F)]-NH2), with more than 100 µM. `NC(=O)CC[C@H](NC(=O)[C@H](Cc1cccc2ccccc12)NC(=O)[C@H](Cc1cccc(F)c1)NC(=O)CNC(=O)[C@H](CCC(=O)O)NC(=O)CCC(=O)O)C(N)=O` [Suc-EG-F(3F)-1Nal-Q-NH2] (Suc-EG[Phe(3-F)][1Nal]Q-NH2): the IC50 was 7.22 µM. `NC(=O)[C@H](Cc1cccnc1)NC(=O)[C@H](Cc1cccc(F)c1)NC(=O)CNC(=O)[C@H](CCC(=O)O)NC(=O)CCC(=O)O` [Suc-EG-F(3F)-3Pal-NH2] (Suc-EG[Phe(3-F)][3Pal]-NH2): the IC50 is 70 µM.

As for `NC(=O)[C@H](Cc1ccc([N+](=O)[O-])cc1)NC(=O)[C@H](Cc1cccc(F)c1)NC(=O)CNC(=O)[C@H](CCC(=O)O)NC(=O)CCC(=O)O` [Suc-EG-F(3F)-F(4NO2)-NH2] (Suc-EG[Phe(3-F)][Phe(4-NO2)]-NH2), the IC50 is more than 100 µM.

`COc1ccc(C[C@H](NC(=O)[C@H](Cc2cccc(F)c2)NC(=O)CNC(=O)[C@H](CCC(=O)O)NC(=O)CCC(=O)O)C(=O)N[C@@H](CCC(=O)O)C(N)=O)cc1` [Suc-EG-F(3F)-Y(Me)-E-NH2] (Suc-EG[Phe(3-F)]Y(Me)E-NH2): the IC50 worked out at 1.4 µM. As to `NC(=O)[C@H](Cc1cccc2ccccc12)NC(=O)[C@H](Cc1ccc([N+](=O)[O-])cc1)NC(=O)CNC(=O)[C@H](CCC(=O)O)NC(=O)CCC(=O)O` [Suc-EG-F(4NO2)-1Nal-NH2] (Suc-EG[Phe(4-NO2)][1Nal]-NH2), the IC50 turned out to be 14 µM. For `NC(=O)[C@H](Cc1cccc(F)c1)NC(=O)[C@H](Cc1ccccc1)NC(=O)CNC(=O)[C@H](CCC(=O)O)NC(=O)CCC(=O)O` [Suc-EGF-F(3F)-NH2] (Suc-EGF[Phe(3-F)]-NH2) the value was more than 100 µM.

Turning to `NC(=O)[C@H](Cc1ccc(F)cc1)NC(=O)[C@H](Cc1ccccc1)NC(=O)CNC(=O)[C@H](CCC(=O)O)NC(=O)CCC(=O)O` [Suc-EGF-F(4F)-NH2] (Suc-EGF[Phe(4-F)]-NH2), the IC50 was more than 100 µM. For `NC(=O)[C@H](Cc1ccc([N+](=O)[O-])cc1)NC(=O)[C@H](Cc1ccccc1)NC(=O)CNC(=O)[C@H](CCC(=O)O)NC(=O)CCC(=O)O` [Suc-EGF-F(4NO2)-NH2] (Suc-EGF[Phe(4-NO2)]-NH2) the value was more than 100 µM.

These data come from patent publication US20190106460A1, “BINDING INHIBITORS OF THE BETA. TRANSDUCIN REPEAT-CONTAINING PROTEIN” (priority 2011, published 2019).
